Key:
Assay in all cases: relative viability (nuclei count vs DMSO), 5 days (fraction); higher = more cells survive
NCI-H1666 = test system: NCI-H1666
Summary of the method: (§1)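 The day after seeding in 1536-well plates, lung cancer cell lines were treated by pin tool with a single drug, or with a fixed anchor-drug dose together with five library-drug doses (not always all listed) in √10 steps. After 5 days, a combined fix-and-stain solution (final 0.05% Triton X-100, 1% formaldehyde, 1 ug/ml Hoechst) was added. Nuclei counted on 4× images gave relative viability as treated counts over vehicle counts, reported as the median of duplicate plates.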

NCI-H1944 = test system: NCI-H1944
Summary of the method: as §1

HARA = test system: HARA
Summary of the method: as §1

HCC-366 = test system: HCC-366
Summary of the method: as §1

NCI-H2347 = test system: NCI-H2347
Summary of the method: as §1

NCI-H2405 = test system: NCI-H2405
Summary of the method: as §1

IA-LM = test system: IA-LM
Summary of the method: as §1

NCI-H1703 = test system: NCI-H1703
Summary of the method: as §1

HCC-15 = test system: HCC-15
Summary of the method: as §1

NCI-H1734 = test system: NCI-H1734
Summary of the method: as §1

NCI-H358 = test system: NCI-H358
Summary of the method: as §1

PC-3 [JPC-3] = test system: PC-3 [JPC-3]
Summary of the method: as §1

LU99A = test system: LU99A
Summary of the method: as §1

NCI-H1975 = test system: NCI-H1975
Summary of the method: as §1

NCI-H460 = test system: NCI-H460
Summary of the method: as §1

NCI-H661 = test system: NCI-H661
Summary of the method: as §1

NCI-H650 = test system: NCI-H650
Summary of the method: as §1

NCI-H1623 = test system: NCI-H1623
Summary of the method: as §1

NCI-H838 = test system: NCI-H838
Summary of the method: as §1

NCI-H1793 = test system: NCI-H1793
Summary of the method: as §1

NCI-H2228 = test system: NCI-H2228
Summary of the method: as §1

NCI-H3122 = test system: NCI-H3122
Summary of the method: as §1

LXF-289 = test system: LXF-289
Summary of the method: as §1

SW 1573 = test system: SW 1573
Summary of the method: as §1

## Nc1cccc2c1CN(C1CCC(=O)NC1=O)C2=O (configuration not stated) [Lenalidomide] + COc1cc2c(Oc3ccc(NC(=O)C4(C(=O)Nc5ccc(F)cc5)CC4)cc3F)ccnc2cc1OCCCN1CCOCC1 [Foretinib] (partner 0.25 µM)
NCI-H1666; first compound 0.253 µM
  relative viability: 1
NCI-H1666; first compound 2.53 µM
  relative viability: 1
NCI-H1666; first compound 8 µM
  relative viability: 0.983
NCI-H1944; first compound 0.253 µM
  relative viability: 0.871
NCI-H1944; first compound 0.8 µM
  relative viability: 0.905
NCI-H1944; first compound 2.53 µM
  relative viability: 0.911
NCI-H1944; first compound 8 µM
  relative viability: 0.848
HARA; first compound 0.253 µM
  relative viability: 0.846
HARA; first compound 2.53 µM
  relative viability: 0.856
HARA; first compound 8 µM
  relative viability: 0.955
HCC-366; first compound 0.253 µM
  relative viability: 0.916
HCC-366; first compound 0.8 µM
  relative viability: 1.04
HCC-366; first compound 2.53 µM
  relative viability: 0.915
HCC-366; first compound 8 µM
  relative viability: 0.929
NCI-H2347; first compound 0.253 µM
  relative viability: 0.881
NCI-H2347; first compound 0.8 µM
  relative viability: 1.05
NCI-H2347; first compound 2.53 µM
  relative viability: 0.956
NCI-H2347; first compound 8 µM
  relative viability: 0.364
NCI-H2405; first compound 0.253 µM
  relative viability: 1.02
NCI-H2405; first compound 0.8 µM
  relative viability: 0.951
NCI-H2405; first compound 2.53 µM
  relative viability: 1.11
NCI-H2405; first compound 8 µM
  relative viability: 1.01
IA-LM; first compound 0.253 µM
  relative viability: 0.952
IA-LM; first compound 0.8 µM
  relative viability: 1.15
IA-LM; first compound 2.53 µM
  relative viability: 1.28
IA-LM; first compound 8 µM
  relative viability: 1.07
NCI-H1703; first compound 0.253 µM
  relative viability: 0.328
NCI-H1703; first compound 0.8 µM
  relative viability: 0.348
NCI-H1703; first compound 2.53 µM
  relative viability: 0.403
NCI-H1703; first compound 8 µM
  relative viability: 0.426
HCC-15; first compound 0.253 µM
  relative viability: 1.03
HCC-15; first compound 0.8 µM
  relative viability: 1.04
HCC-15; first compound 2.53 µM
  relative viability: 1.17
HCC-15; first compound 8 µM
  relative viability: 1.05
NCI-H1734; first compound 0.253 µM
  relative viability: 0.894
NCI-H1734; first compound 0.8 µM
  relative viability: 0.776
NCI-H1734; first compound 2.53 µM
  relative viability: 0.932
NCI-H1734; first compound 8 µM
  relative viability: 0.809
NCI-H358; first compound 0.253 µM
  relative viability: 0.47
NCI-H358; first compound 0.8 µM
  relative viability: 0.987
NCI-H358; first compound 2.53 µM
  relative viability: 0.791
NCI-H358; first compound 8 µM
  relative viability: 0.797
PC-3 [JPC-3]; first compound 0.253 µM
  relative viability: 1.06
PC-3 [JPC-3]; first compound 0.8 µM
  relative viability: 0.974
PC-3 [JPC-3]; first compound 2.53 µM
  relative viability: 1.17
PC-3 [JPC-3]; first compound 8 µM
  relative viability: 1.08
LU99A; first compound 0.253 µM
  relative viability: 0.831
LU99A; first compound 0.8 µM
  relative viability: 0.789
LU99A; first compound 2.53 µM
  relative viability: 0.761
LU99A; first compound 8 µM
  relative viability: 0.599
NCI-H1975; first compound 0.253 µM
  relative viability: 0.942
NCI-H1975; first compound 0.8 µM
  relative viability: 0.823
NCI-H1975; first compound 2.53 µM
  relative viability: 1.07
NCI-H1975; first compound 8 µM
  relative viability: 1.14
NCI-H460; first compound 0.253 µM
  relative viability: 0.964
NCI-H460; first compound 0.8 µM
  relative viability: 1.02
NCI-H460; first compound 2.53 µM
  relative viability: 1.14
NCI-H460; first compound 8 µM
  relative viability: 1.07
NCI-H661; first compound 0.253 µM
  relative viability: 0.996
NCI-H661; first compound 0.8 µM
  relative viability: 0.983
NCI-H661; first compound 2.53 µM
  relative viability: 1.01
NCI-H661; first compound 8 µM
  relative viability: 0.994
NCI-H650; first compound 0.253 µM
  relative viability: 1.02
NCI-H650; first compound 2.53 µM
  relative viability: 1.14
NCI-H650; first compound 8 µM
  relative viability: 1.01
NCI-H1623; first compound 0.253 µM
  relative viability: 0.858
NCI-H1623; first compound 0.8 µM
  relative viability: 0.784
NCI-H1623; first compound 2.53 µM
  relative viability: 0.862
NCI-H1623; first compound 8 µM
  relative viability: 0.71
NCI-H838; first compound 0.253 µM
  relative viability: 1.11
NCI-H838; first compound 0.8 µM
  relative viability: 0.965
NCI-H838; first compound 2.53 µM
  relative viability: 1.15
NCI-H838; first compound 8 µM
  relative viability: 1.2
NCI-H1793; first compound 0.253 µM
  relative viability: 0.706
NCI-H1793; first compound 2.53 µM
  relative viability: 1.04
NCI-H1793; first compound 8 µM
  relative viability: 0.655
NCI-H2228; first compound 0.253 µM
  relative viability: 0.943
NCI-H2228; first compound 0.8 µM
  relative viability: 0.907
NCI-H2228; first compound 2.53 µM
  relative viability: 1.04
NCI-H2228; first compound 8 µM
  relative viability: 0.975
NCI-H3122; first compound 0.253 µM
  relative viability: 0.98
NCI-H3122; first compound 0.8 µM
  relative viability: 1.04
NCI-H3122; first compound 2.53 µM
  relative viability: 0.915
NCI-H3122; first compound 8 µM
  relative viability: 1.02
LXF-289; first compound 0.253 µM
  relative viability: 0.977
LXF-289; first compound 0.8 µM
  relative viability: 1.01
LXF-289; first compound 2.53 µM
  relative viability: 1.07
LXF-289; first compound 8 µM
  relative viability: 1.09
SW 1573; first compound 0.253 µM
  relative viability: 0.971
SW 1573; first compound 0.8 µM
  relative viability: 1.15
SW 1573; first compound 2.53 µM
  relative viability: 0.95
SW 1573; first compound 8 µM
  relative viability: 0.877
